Read-outs that look alike come from different tables or passages of the source.
Experiments:
[1] = system: SH-SY5Y cells; test: MTT cell viability assay, SH-SY5Y; format: cell-based; details: Homo sapiens, NB cell line, 72 h
Description: (§1) N2a, SH-SY5Y, SK-N-BE (2), 10A, HUVEC, HL7702 cells were plated in 96-well plates at 8,000 cells/well, respectively, in complete media in triplicate wells for each dose and cultured for 18 h. The neuroblastoma cell lines, N2a, SH-SY5Y, and SK-N-BE (2), and non-cancer cell lines, 10A, HUVEC, and HL7702, were treated with simvastatin and fluvastatin in a range of doses from 0 to 20 μM and with AA from 0 to 30 μM; N2a, SH-SY5Y SK-N-BE (2), were treated with rosuvastatin in a range of doses from 0 to 100 μM for 72 h. Statins dissolved in DMSO and AA dissolved in ethanol. After 72 h treatment, the medium was added 0.5 mg/ml MTT reagent and incubated at 37°C for 4 h. Subsequently, the supernatant was aspirated, and cells were lysed in 150 µl DMSO, then shaken 10 min at 37°C. The optical density (OD) was measured at 570 and 630 nm using a plate reader.

[2] = system: SK-N-BE (2) cells; test: MTT cell viability assay, SK-N-BE (2); format: cell-based; details: Homo sapiens, SKNBE2, NB cell line, 72 h
Description: as §1

[3] = system: N2a cells; test: Wound healing assay, N2a; format: cell-based, mouse; details: 1.5 μM simvastatin, 48 h
Description: N2a, SH-SY5Y, and SK-N-BE (2) cells were cultured in six-well plates (5 × 10^5cells/well) and incubated till they reached 90–100% confluence. The cells were then maintained in phenol red-free DMEM/DMEM-F12 with 2.5%FBS, in order to minimize the cell proliferation. A sterile 20 µl tip was used to create scratch wounds of the same width. The plates were then washed twice with phosphate-buffered saline (PBS) to remove the detached cells. Photos were taken at 0, 24, and 48 h, and the area covered by the cells enumerated the closure of the wounds. Each experiment was performed in triplicate.

[4] = system: SH-SY5Y xenografts; test: SH-SY5Y tumor xenograft study; format: in vivo, BALB/c nude mice; details: Sim 20 mg/kg, oral daily
Source text: Four weeks old BALB/c nude mice of both sexes were purchased from Vital River Laboratory Animal Technology Co., Ltd. (Beijing, China) and maintained under specific pathogen-free conditions. Male mice were castrated 5 days before cell inoculation. […] Then, all the mice were divided randomly into four groups: control group (Placebo, n = 7), simvastatin group (Sim, n = 6), abiraterone acetate group (AA, n = 6), and combination group (Com, n = 6) including three male mice in each group. […] AA 150 mg/kg/day; combined simvastatin 10 mg/kg/day with AA 75 mg/kg/day. Tumor was harvested after 10 days of dosing, then fixed half of a tumor in 4% buffered formaldehyde for IHC and the other half was stored −80°C for RT-PCR and Western Blots analysis.

[5] = system: U87MG; design: method as in Supplement [1]; key: Positive: Simvastatin alone inhibited the progression of cancer; Negative: Simvastatin alone could not inhibit the progression of cancer; details: Glioma, 2.5 mg/kg/day, s.c.; ref Supplement [1]; cited from earlier work
[6] = system: GL-26 cells; design: method as in Supplement [2]; key: Positive: Simvastatin alone inhibited the progression of cancer; Negative: Simvastatin alone could not inhibit the progression of cancer; details: Human glioblastoma multiforme, 1.0 mg/kg/day or 10.0 mg/kg/day, oral; ref Supplement [2]; cited from earlier work
[7] = system: A549 cells; design: method as in Supplement [5]; key: Positive: Simvastatin alone inhibited the progression of cancer; Negative: Simvastatin alone could not inhibit the progression of cancer; details: Lung Adenocarcinoma, 10.0 mg/kg/day, i.v; ref Supplement [5]; cited from earlier work
[8] = system: CAPAN-2 cells; design: method as in Supplement [8]; key: Positive: Simvastatin alone inhibited the progression of cancer; Negative: Simvastatin alone could not inhibit the progression of cancer; details: Pancreatic Cancer, 0.5 mg/kg/day, oral; ref Supplement [8]; cited from earlier work
[9] = system: Panc-1 cells from the primary tumors; design: method as in Supplement [9]; key: Positive: Simvastatin alone inhibited the progression of cancer; Negative: Simvastatin alone could not inhibit the progression of cancer; details: Pancreatic Ductal Adenocarcinoma, 20.0 mg/kg/day, i.p.; ref Supplement [9]; cited from earlier work
[10] = system: HCT116 p53 +/+ or p53 -/- cells; design: method as in Supplement [12]; key: Positive: Simvastatin alone inhibited the progression of cancer; Negative: Simvastatin alone could not inhibit the progression of cancer; details: Colorectal Cancer, 20.0 mg/kg/day, i.p.; ref Supplement [12]; cited from earlier work
[11] = system: LAPC-4 cells; design: method as in Supplement [16]; key: Positive: Simvastatin alone inhibited the progression of cancer; Negative: Simvastatin alone could not inhibit the progression of cancer; details: Prostate Cancer, 11.0 mg/kg/day, s.c.; ref Supplement [16]; cited from earlier work
[12] = system: K562 cells; design: key: Positive: Simvastatin alone inhibited the progression of cancer; Negative: Simvastatin alone could not inhibit the progression of cancer; details: Chronic Myelogenous Leukemia, i.p., cited from earlier work

SMILES: CCC(C)(C)C(=O)O[C@H]1C[C@@H](C)C=C2C=C[C@H](C)[C@H](CC[C@@H]3C[C@@H](O)CC(=O)O3)[C@H]21 [Simvastatin]
- IC50 [1]: 9.69 µM
- IC50 [2]: 10.5 µM
- migration vs control group [3]: significantly higher
- tumor growth [4]: tumor growth delay
- Results (simvastatin alone) [5]: Positive
- Results (simvastatin alone) [6]: Negative
- Results (simvastatin alone) [7]: Positive
- Results (simvastatin alone) [8]: Positive
- Results (simvastatin alone) [9]: Positive
- Results (simvastatin alone) [10]: Positive
- Results (simvastatin alone) [11]: Negative
- Results (simvastatin alone) ([12]; 1.3 mg/kg/day or 2.0 mg/kg/day, ref Supplement [26]): Positive
- Results (simvastatin alone) ([12]; 7.1 mg/kg/day or 14.3 mg/kg/day, ref Supplement [27]): Positive

Reference: publication PMC8141582, “Synergistic Effect of Statins and Abiraterone Acetate on the Growth Inhibition of Neuroblastoma via Targeting Androgen Receptor” (Frontiers in Oncology, 2021)
